In patent US20120295346A1, “METHODS AND COMPOSITIONS FOR MODULATING MEMBRANE POTENTIAL TO INFLUENCE CELL BEHAVIOR” (Tufts University, priority 2009, published 2012):
Entries after “also recorded” stand apart in the source; their conditions may differ.

Columns and labels:
Xenopus embryos [1] = assay: Drug exposure of Xenopus embryos, hyper-pigmentation phenotype
Text: Ivermectin is known to open vertebrate GlyCl channels, resulting in chloride flux through the membrane (Schonrock, B., and Bormann, J. (1993) Naunyn Schmiedebergs Arch Pharmacol 348, 628-632; Shan, Q., Haddrill, J. L., and Lynch, J. W. (2001) J Biol Chem 276, 12556-12564.).
Xenopus embryos were collected according to standard protocols (Sive, Grainger et al. 2000) in 0.1× Modified Marc's Ringers (MMR) pH 7.8+0.1% Gentamycin. Xenopus embryos were staged according to Nieuwkoop and Faber 1967.
(§1) Stocks of ivermectin (sigma) were kept at 10 mM concentration in DMSO. Embryo exposure occurred at a 1:1000 dilution (10 μM) in MMR for the stages indicated in each experiment. […] Stocks of strychnine were kept at 1 g in 6 ml of water; embryos were treated with 100 μl of stock in 10 ml of MMR. Drugs and media were replaced every 48 hours.

Xenopus embryos [2] = assay: Ivermectin-induced hyper-pigmentation with blockers of voltage sensitive pathways; assay type: in vivo; settings: for effect on ivermectin-induced hyper-pigmentation: with 10 μM ivermectin, 0.1 mM cadmium chloride, 0.1 mM verapamil, 50 mM lindane, 20 mM fluoxetine
Method: We next sought to examine how changes in membrane voltage are translated into downstream signaling. In order to determine the signaling molecules responding to ivermectin induced depolarization, we examined three known voltage sensitive pathways: calcium, serotonin, and gap junctions. We capitalized on the existence of drugs known to block each of these pathways to determine if any were downstream of ivermectin signaling.
Embryos were exposed to 10 μM ivermectin from stage 10 throughout development. […] The following methods were used in conducting the experiments detailed above.
as §1

[3] = system: human epidermal melanocytes; assay: Human melanocyte culture in high potassium media, proliferation and dendrite analysis; assay type: cell-based
Text: After finding that Xenopus melanocytes responded to modulations in membrane potential, we examined human epidermal melanocytes to assess the impact of membrane depolarization on cell phenotype. For these studies, ivermectin could not be used to depolarize the membrane because the culture medium used to maintain the cells has a much higher chloride ion concentration then that observed intracellularly in these particular cells. Thus, membrane potential was modulated by raising the extracellular potassium concentration by addition of potassium gluconate to the media.
Following two days of culture in 50 mM potassium gluconate supplemented media, human melanocytes developed a highly […] morphology, with a number of cells showing five or more such projections (compare FIGS. 6a and b). […] To verify that melanocytes grown in high potassium medium were in fact depolarized we made use of membrane voltage imaging using CC2-DMPE and DiBAC4 dyes, which allow visualization of the membrane potential (FIG. 6, d and e).
Human melanocytes were obtained commercially and cultured in DermaLife M Melanocyte culture medium (Lifeline Cell Technology, Walkersville, Md.). Cells were maintained within standard 50 ml culture flasks (BD Bioscience, San Jose, Calif.), and were fed with 10 ml warm media every other day. Upon reaching confluence, melanocytes were passaged using a standard trypsonization protocol, and new colonies were seeded at approximately 5,000 cells per cm^2.
For dendrite analysis, cells were imaged on a Nikon AZ100M stereo microscope and the numbers of dendrites on all cells within the field of vision were counted. Cell culture in high potassium media was repeated three times, and the results averaged for statistical analysis.

human melanocytes = assay: Imaging membrane voltage using CC2-DMPE and DiBAC4(3); assay type: cell-based; settings: high potassium media, CC2-DMPE and DiBAC4 dyes
Method: CC2-DMPE (N-(6-chloro-7-hydroxycoumarin-3-carbonyl)-dimyristoylphosphatidyl ethanolamine), a coumarin phospholipid, and DiBAC4(3) (bis-(1,3-dibutylbarbituric acid) trimethine oxonol) were purchased from Invitrogen. Stock CC2-DMPE solution was prepared according to manufacturer directions; briefly, a 5 mM stock (in DMSO) was prepared, aliquoted, and stored at −20° C. until immediately before use. DiBAC4(3) stock (1.9 mM in DMSO) was prepared and stored at room temperature. CC2-DMPE stock was dissolved 1:1000 directly into DMEM. DiBAC4(3) stock was dissolved 1:2 in DMSO, then spun at rcf 20,800 for 10 minutes to remove undissolved particles of dye. Supernate was then diluted 1:4000 in DMEM. 1 mL of CC2-DMPE is added to cells grown in 35 mm FluoroDish Sterile Culture Dishes. Cells are incubated for 30 minutes, then washed twice with plain DMEM. 1-2 mLs of DiBAC4(3) are then added to the dish. Cells are incubated at least 30 minutes before imaging begins; cells are imaged while in the DiBAC4(3) bath. A round coverslip is dropped into the dish, and any medium outside the well is removed. […]
An Olympus BX-61 equipped with a Hamamatsu ORCA AG CCD camera, and controlled by IPLabs, was used for imaging. […] No calibration was performed; nonetheless, pixel intensity within and among images can be compared for relative quantification. […]

Xenopus embryos [4] = assay: Ivermectin exposure in MMR with varying levels of chloride; assay type: in vivo; settings: for % hyper-pigmented / Hyper-pigmented (number of embryos) / Normal pigmentation (number of embryos): 10 μM ivermectin from stage 10
Method: We next sought to determine whether the alteration of melanocyte behavior was due to GlyCl-dependent changes in transmembrane potential. The intracellular concentration of chloride in an embryo is approximately 60 mM while the extracellular concentration of Modified Marc's Ringers (MMR), the solution in which the embryos are maintained, is 10 mM. If ivermectin constitutively opens chloride channels, ivermectin treatment would be expected to cause an efflux of Cl^− ions, thus resulting in depolarization of the cell membrane. Conversely, if the concentration of external chloride were raised above intracellular levels, chloride ions would enter cells following treatment with ivermectin, thus maintaining a hyperpolarized membrane potential. To test this hypothesis, we raised the concentration of chloride in the extracellular MMR media to 30 mM, 60 mM, or 90 mM and examined the resulting phenotype following ivermectin exposure.
Embryos were exposed to the chloride activator ivermectin (10 μM) from stage 10 throughout development in MMR containing varying levels of chloride.
as §1

melanocytes = assay: Melanocyte counts in ivermectin-exposed Xenopus embryos; assay type: in vivo
Method: We examined whether there is a critical period of ivermectin exposure required for hyperpigmentation. […] One set of animals was exposed to 10 μM ivermectin from stages 10-24 (gastrulation through the completion of neurulation), while the second set were exposed from stages 28-46 (tailbud through tadpole). Early exposed embryos were washed 3× in 0.5×MMR post exposure and transferred to a new dish to remove all drug from the environment.
In order to evaluate the number of melanocytes between treatments, early vs. late exposed embryos were anesthetized in tricane, and then photographed. We then counted the number of melanocytes within the eye region (FIG. 2A, B), and compared each treatment to age-matched control siblings. […] In comparison, embryos exposed to ivermectin during gastrulation and neurogenesis, the time when a subset of neural crest cells become fated to differentiate along a melanocyte fate, show a 1.5 fold increase in melanocyte number compared to controls (FIG. 2C).
Melanocytes were counted by cellAnalyst software (AssaySoft, Inc) on digital photographs of anesthetized larvae. Adobe Illustrator (Adobe Systems Inc) was used to define the dorsal region between the eyes used for counting. Tail regions were defined using digital photographs, starting at the most posterior tip of the tail and counting all melanocytes within a 400 pixel square bounding box extending anteriorly.

[5] = older tadpoles (beyond stage 46) exposed to ivermectin
[6] = ivermectin from gastrulation throughout development
[7] = 10 μM ivermectin from stage 10 throughout development, second drug concurrently

**Q.** With `NCC(=O)O` [glycine] as the compound, how does the hyper-pigmentation phenotype (Xenopus embryos [1]; 3 mM glycine, exposure throughout development) read?
**A.** Its hyper-pigmentation phenotype is “induced the same hyperpigmented phenotype as ivermectin; also recorded: induces hyper-pigmentation at a similar level to ivermectin exposure”.

**Q.** With `CNCCC(Oc1ccc(C(F)(F)F)cc1)c1ccccc1` (stereo not shown) [fluoxetine] as the compound, how does the “effect on ivermectin-induced hyper-pigmentation” value (Xenopus embryos [2]) read?
**A.** The value was “blocked ivermectin-induced hyper-pigmentation in all of the treated embryos; also recorded: completely inhibited”.

**Q.** Which results are given for `O=C([O-])[C@H](O)[C@@H](O)[C@H](O)[C@H](O)CO.[K+]` [potassium gluconate]?
**A.** effect on growth in potassium dose response screen ([3]; 40 mM potassium gluconate): non-inhibitory to growth; cell proliferation, standard vs high potassium media ([3]; 50 mM potassium gluconate supplemented media): No measurable differences in cell proliferation; dendricity / number of projections of melanocytes ([3]; 50 mM potassium gluconate supplemented media, two days of culture): significant effect on the number of projections; also recorded: significant effect of potassium gluconate on dendricity; membrane potential of treated cells compared to controls (human melanocytes): depolarization

**Q.** Which “effect on ivermectin-induced hyper-pigmentation” value (Xenopus embryos [2]) does the source give for `[Cl][Cd][Cl]` [cadmium chloride] here?
**A.** The value was “did not result in any reduction; also recorded: did not inhibit hyper-pigmentation”.

**Q.** With ivermectin as the compound, how does the “% hyper-pigmented” value (Xenopus embryos [4]; 10 mM Cl−) read?
**A.** The value was 100%.

**Q.** What about the “Hyper-pigmented (number of embryos)” value (Xenopus embryos [4]; 10 mM Cl−) of the same compound?
**A.** The value was 25.

**Q.** And the “Normal pigmentation (number of embryos)” value (Xenopus embryos [4]; 10 mM Cl−)?
**A.** Its value is 0.

**Q.** And the “% hyper-pigmented” value (Xenopus embryos [4]; 30 mM Cl−)?
**A.** Its value is 95.8%.

**Q.** And the “Hyper-pigmented (number of embryos)” value (Xenopus embryos [4]; 30 mM Cl−)?
**A.** The value was 23.

**Q.** What about the “Normal pigmentation (number of embryos)” value (Xenopus embryos [4]; 30 mM Cl−) of the same compound?
**A.** The value was 1.

**Q.** What about the “% hyper-pigmented” value (Xenopus embryos [4]; 60 mM Cl−) of the same compound?
**A.** Its value is 21.7%.

**Q.** And the “Hyper-pigmented (number of embryos)” value (Xenopus embryos [4]; 60 mM Cl−)?
**A.** Its value is 5.

**Q.** What about the “Normal pigmentation (number of embryos)” value (Xenopus embryos [4]; 60 mM Cl−) of the same compound?
**A.** The value was 18.

**Q.** And the “% hyper-pigmented” value (Xenopus embryos [4]; 90 mM Cl−)?
**A.** Its value is 0%.

**Q.** What about the “Hyper-pigmented (number of embryos)” value (Xenopus embryos [4]; 90 mM Cl−) of the same compound?
**A.** Its value is 0.

**Q.** What about the “Normal pigmentation (number of embryos)” value (Xenopus embryos [4]; 90 mM Cl−) of the same compound?
**A.** Its value is 32.

**Q.** And the “ivermectin hyper-pigmentation phenotype in words” value (Xenopus embryos [4]; extracellular chloride 10 mM)?
**A.** The value was “strong hyper-pigmentation”.

**Q.** And the “ivermectin hyper-pigmentation phenotype in words” value (Xenopus embryos [4]; extracellular chloride 30 mM)?
**A.** The value was “did not inhibit hyper-pigmentation; also recorded: strong hyper-pigmentation”.

**Q.** And the “ivermectin hyper-pigmentation phenotype in words” value (Xenopus embryos [4]; extracellular chloride 60 mM)?
**A.** The value was “suppressed; also recorded: partial inhibition”.

**Q.** What about the “ivermectin hyper-pigmentation phenotype in words” value (Xenopus embryos [4]; extracellular chloride 90 mM) of the same compound?
**A.** Its value is “completely inhibited; also recorded: complete inhibition”.

**Q.** What about the “increase in melanocyte number in eye field relative to controls” value (melanocytes; 10 μM ivermectin, early exposure stages 10-24) of the same compound?
**A.** The value was 1.5 fold.

**Q.** What about the “melanocyte number in eye field relative to controls” value (melanocytes; 10 μM ivermectin, late exposure stages 28-46, at stage 46) of the same compound?
**A.** Its value is “do not show a significant increase; also recorded: no detectible difference”.

**Q.** And the “increase in melanocyte counts in the tip of the tail” value (melanocytes; ivermectin throughout development)?
**A.** Its value is 1.5 fold.

**Q.** What about the “generation of more melanocytes” value (melanocytes; [5]) of the same compound?
**A.** The value was “do not appear to generate more melanocytes”.

**Q.** What about the “time to expansion of pigment cells” value (melanocytes; [5]) of the same compound?
**A.** Its value is at most 24 h.

**Q.** And the “melanocyte morphology compared to wild type siblings” value (Xenopus embryos [1]; [6])?
**A.** Its value is “take on a dendritic morphology”.

**Q.** And the “other disruptions of normal development” value (Xenopus embryos [1]; [6])?
**A.** The value was “not accompanied by any other observable disruptions of normal development”.

**Q.** And the “treated embryos/larvae developing hyper-pigmentation” value (Xenopus embryos [1]; [6])?
**A.** Its value is 98%.

**Q.** What about the “incidence of hyper-pigmentation in words” value (Xenopus embryos [2]; 10 μM ivermectin alone) of the same compound?
**A.** Its value is “strong incidence of hyper-pigmentation”.

**Q.** What about the “% hyper-pigmented” value (Xenopus embryos [2]; [7]) of the same compound?
**A.** The value was 95.3%.

**Q.** And the “Hyper-pigmented tadpoles (number)” value (Xenopus embryos [2]; [7])?
**A.** Its value is 61.

**Q.** What about the “WT tadpoles (number)” value (Xenopus embryos [2]; [7]) of the same compound?
**A.** The value was 3.

**Q.** What does the source list for `Cl[C@H]1[C@H](Cl)[C@@H](Cl)[C@@H](Cl)[C@H](Cl)[C@H]1Cl` [lindane]?
**A.** effect on ivermectin-induced hyper-pigmentation (Xenopus embryos [2]): did not result in any reduction; effect on ivermectin-induced hyper-pigmentation (Xenopus embryos [2]; listed as lindine): did not inhibit hyper-pigmentation
